Data on 28 compounds can be found in ChEMBL document CHEMBL3627682, “Exploration of the structure-activity relationship of 1,2,4-oxadiazole antibiotics” (2015).

Holding throughout (assay type): functional
Test [1] has as its system Staphylococcus aureus. Nature of the test: Antibacterial activity against Staphylococcus aureus ATCC 29213.
Test [2] has as its system Staphylococcus aureus. Put plainly: Antibacterial activity against vancomycin-resistant Staphylococcus aureus VRS1.
The test system of test [3] is Enterococcus faecalis. Put plainly: Antibacterial activity against vancomycin-resistant Enterococcus faecalis 99.
For test [4], the system named is Staphylococcus aureus. Nature of the test: Antibacterial activity against ciprofloxacin, gentamicin, oxacillin, penicillin, and linezolid-resistant Staphylococcus aureus NRS119 expressing mecA.
Test [5] concerns Bacillus licheniformis. Nature of the test: Antibacterial activity against Bacillus licheniformis ATCC 12759.
For test [6], the system named is Bacillus cereus. Put plainly: Antibacterial activity against Bacillus cereus ATCC 13061.
The subject of test [7] is Staphylococcus aureus. Put plainly: Antibacterial activity against methicillin, oxacillin, and tetracycline-resistant and vancomycin and linezolid-susceptible Staphylococcus aureus ATCC 27660 expressing mecA.
Test [8] deals with Enterococcus faecalis. Nature of the test: Antibacterial activity against Enterococcus faecalis 201.
Test [9] relates to Staphylococcus aureus. Put plainly: Antibacterial activity against methicillin, oxacillin, and tetracycline-resistant and vancomycin and linezolid-susceptible Staphylococcus aureus NRS100 COL expressing mecA.
Test [10] deals with Staphylococcus aureus. Nature of the test: Antibacterial activity against vancomycin-resistant Staphylococcus aureus VRS2.
Test [11] has as its system Staphylococcus haemolyticus. Nature of the test: Antibacterial activity against Staphylococcus haemolyticus ATCC 29970.
Test [12] deals with Enterococcus faecium. Put plainly: Antibacterial activity against vancomycin-resistant Enterococcus faecium C68.
The subject of test [13] is Enterococcus faecalis. Nature of the test: Antibacterial activity against Enterococcus faecalis ATCC 29212.
Test [14] has as its system Enterococcus faecium. Put plainly: Antibacterial activity against Vancomycin-susceptible Enterococcus faecium 119-39A.
In test [15] the test system is Staphylococcus epidermidis. Put plainly: Antibacterial activity against Staphylococcus epidermidis ATCC 35547.
Test [16] deals with Staphylococcus aureus. Put plainly: Antibacterial activity against ciprofloxacin, gentamicin, oxacillin, penicillin, and linezolid-resistant Staphylococcus aureus NRS120 expressing mecA.
Test [17] relates to Enterococcus faecium. Nature of the test: Antibacterial activity against vancomycin-resistant Enterococcus faecium 106.

The structures appear in SMILES notation. ≈ marks a conversion by molar mass, not a printed value. A value given as a limit tells only on which side of the number the result lay.

`Oc1ccc(-c2nc(-c3ccc(Sc4cccc(Br)c4)cc3)no2)cc1` came in with an MIC in test [1] of 8 µg/mL (≈ 18.8 µM).
For `Oc1ccc(-c2nc(-c3ccc4occc4c3)no2)cc1`, it took 64 µg/mL (≈ 230 µM) to inhibit growth in [1] (MIC). Against the preceding compound, the MIC is about 8-fold higher.
With `Cl.Nc1ccc(-c2noc(-c3ccc(O)cc3)n2)cc1`, in [1], the MIC was ≥ 256 µg/mL.
Same read-out and setting: the value for `Oc1ccc(-c2nc(-c3ccc4c(c3)OCO4)no2)cc1` was ≥ 128 µg/mL.
For `[N-]=[N+]=Nc1cc(-c2noc(-c3ccc(O)cc3)n2)ccc1Oc1ccc(C(F)(F)F)cc1`, the MIC in [2] worked out at 2 µg/mL (≈ 4.55 µM); in [3], 4 µg/mL (≈ 9.1 µM); in test [4] it was 4 µg/mL (≈ 9.1 µM); in test [5], 4 µg/mL (≈ 9.1 µM); in test [1], 2 µg/mL (≈ 4.55 µM); in test [6], 4 µg/mL (≈ 9.1 µM). The MIC amounted to 4 µg/mL (≈ 9.1 µM) in test [7]; 4 µg/mL (≈ 9.1 µM) in test [8]; 4 µg/mL (≈ 9.1 µM) in test [9]; 2 µg/mL (≈ 4.55 µM) in [10]; 2 µg/mL (≈ 4.55 µM) in [11]; 4 µg/mL (≈ 9.1 µM) in [12]. For the same compound, the MIC was found to be 2 µg/mL (≈ 4.55 µM) in test [13]; 4 µg/mL (≈ 9.1 µM) in [14]; 2 µg/mL (≈ 4.55 µM) in [15]; 4 µg/mL (≈ 9.1 µM) in test [16]; 4 µg/mL (≈ 9.1 µM) in test [17].
For the compound `Oc1ccc(-c2nc(-c3ccc4sccc4c3)no2)cc1`, in test [1], the MIC is ≥ 128 µg/mL.
`O=[N+]([O-])c1cc(-c2noc(-c3ccc(O)cc3)n2)ccc1Oc1ccc(C(F)(F)F)cc1` had an MIC in test [1] of 8 µg/mL (≈ 18 µM).
For the compound `Oc1ccc(-c2nc(-c3ccc(Nc4ccccc4)cc3)no2)cc1`, in test [1], the minimum inhibitory concentration (MIC) was found to be 4 µg/mL (≈ 12.1 µM).
Turning to `Oc1ccc(-c2nc(-c3ccc(Oc4ccc(C(F)(F)F)cc4)c(O)c3)no2)cc1`, the minimum inhibitory concentration (MIC) in test [2] came to 8 µg/mL (≈ 19.3 µM); in test [3], 16 µg/mL (≈ 38.6 µM); in test [4] it was 8 µg/mL (≈ 19.3 µM); in test [5], 16 µg/mL (≈ 38.6 µM); in [1], 2 µg/mL (≈ 4.83 µM); in [6], 8 µg/mL (≈ 19.3 µM). Besides, the MIC in test [7] came out at 16 µg/mL (≈ 38.6 µM); in test [8], 8 µg/mL (≈ 19.3 µM); in test [9] it was 16 µg/mL (≈ 38.6 µM); in test [10] it was 8 µg/mL (≈ 19.3 µM); in test [11], 8 µg/mL (≈ 19.3 µM); in [12], 8 µg/mL (≈ 19.3 µM). Also, the MIC in test [13] turned out to be 8 µg/mL (≈ 19.3 µM); in test [14] it was 8 µg/mL (≈ 19.3 µM); in test [15] it was 16 µg/mL (≈ 38.6 µM); in [16] it was 8 µg/mL (≈ 19.3 µM); in test [17], 8 µg/mL (≈ 19.3 µM).
As to `Oc1ccc(-c2nc(-c3ccc(Oc4ccc(C(F)(F)F)cc4)c(F)c3)no2)cc1`, in [1], the MIC turned out to be 8 µg/mL (≈ 19.2 µM).
Regarding `[O-][S+](c1ccccc1)c1ccc(-c2noc(-c3ccc(O)cc3)n2)cc1` (stereo unspecified), in test [1], the MIC is ≥ 128 µg/mL.
As to `CC(C)(C)OC(=O)N1CCN(c2ccc(-c3noc(-c4n[nH]cc4Cl)n3)cc2)CC1`, in [1], the MIC was ≥ 128 µg/mL.
Consider `O=C1OCc2cc(-c3noc(-c4ccc(O)cc4)n3)ccc21`, for which, in [1], the minimum inhibitory concentration (MIC) was ≥ 128 µg/mL.
Regarding `Clc1c[nH]nc1-c1nc(N2CCN(c3ccccc3)CC2)no1`, in test [1], the MIC is ≥ 128 µg/mL.
As to `O=C1OCc2cc(-c3noc(-c4n[nH]cc4Cl)n3)ccc21`, the MIC in [1] is ≥ 128 µg/mL.
Still for that read-out and setting: the value for `Cn1ccc2ccc(-c3noc(-c4ccc(O)cc4)n3)cc21` was 8 µg/mL (≈ 27.5 µM).
`Oc1ccc(-c2nc(-c3ccc(Sc4ccc(F)cc4)cc3)no2)cc1` yielded an MIC in test [1] of 2 µg/mL (≈ 5.49 µM).
As to `Clc1c[nH]nc1-c1nc(-c2ccc(N3CCNCC3)cc2)no1`, the MIC in test [1] is ≥ 128 µg/mL.
Consider `CN1CCN(c2ccc(-c3noc(-c4ccc(O)cc4)n3)cc2)CC1`, for which, in [1], the MIC was ≥ 128 µg/mL.
For the compound `c1cc2cc(-c3nc(-c4ccc5c(c4)OCC5)no3)ccc2[nH]1`, in test [1], the MIC is ≥ 128 µg/mL.
Take `Oc1ccc(-c2nc(-c3ccc(Oc4ccc(C(F)(F)F)cc4)cc3Cl)no2)cc1`: the MIC is 2 µg/mL (≈ 4.62 µM) in test [2]; 4 µg/mL (≈ 9.24 µM) in test [3]; 4 µg/mL (≈ 9.24 µM) in test [4]; 2 µg/mL (≈ 4.62 µM) in test [5]; 2 µg/mL (≈ 4.62 µM) in test [1]; 4 µg/mL (≈ 9.24 µM) in test [6]. Further, the MIC in test [7] is 8 µg/mL (≈ 18.5 µM); in test [8], 4 µg/mL (≈ 9.24 µM); in test [9] it was 8 µg/mL (≈ 18.5 µM); in test [10], 2 µg/mL (≈ 4.62 µM); in test [11], 4 µg/mL (≈ 9.24 µM); in [12] it was 4 µg/mL (≈ 9.24 µM). The MIC in test [13], in [14], in [15], in [16] and in test [17] was 4 µg/mL (≈ 9.24 µM) each time.
For `Oc1ccc(-c2nc(-c3ccc(Cc4ccccc4)cc3)no2)cc1`, the MIC in test [1] was ≥ 128 µg/mL.
Still for that read-out and setting: the value for `Oc1ccc(-c2nc(-c3ccc4[nH]c5ccccc5c4c3)no2)cc1` was ≥ 128 µg/mL; that for `Oc1ccc(-c2nc(-c3ccc(N(Cc4ccccc4)c4ccccc4)cc3)no2)cc1` was ≥ 128 µg/mL.
In the case of `Oc1ccc(-c2nc(-c3ccc(Sc4ccccc4)cc3)no2)cc1`, in test [1], the MIC was 2 µg/mL (≈ 5.77 µM).
Compound `CC(C)(C)OC(=O)Nc1ccc(-c2noc(-c3ccc(O)cc3)n2)cc1` had an MIC in test [1] of 8 µg/mL (≈ 22.6 µM).
The same measure, in the same setting: the value for `[N-]=[N+]=Nc1cc(Oc2ccc(C(F)(F)F)cc2)ccc1-c1noc(-c2ccc(O)cc2)n1` was ≥ 128 µg/mL; that for `O=[N+]([O-])c1cc(Oc2ccc(C(F)(F)F)cc2)ccc1-c1noc(-c2ccc(O)cc2)n1` was 4 µg/mL (≈ 9.02 µM).

The term MIC denotes the smallest concentration in the dilution series that meets the test's criterion for growth inhibition. Lower therefore signals inhibition by little substance.
